Earlier results in patent publication US20240374519A1, “COMPOSITIONS FOR SUPPLEMENTING PRODUCTS WITH THERAPEUTIC AGENTS AND METHODS OF USE THEREOF” (DISRUPTION LABS, INC., priority 2021, published 2024).

In the case of C=C(C)[C@@H]1CCC(C)=C[C@H]1c1c(O)cc(CCCCC)cc1O [Cannabidiol], the “log P” value is listed as greater than 5.
